From ChEMBL document CHEMBL1156451 (J Biol Chem, 2007)
Values after ≈ are worked out from the molar mass of the structure shown. Active and inactive are the calls of the source. The calls are words filed in the database; no cut-off is given here. Where a SMILES comes first, the peptide text is derived from it.

What was measured:
Staphylococcus aureus = assay: Antibacterial activity against methicillin-resistant Staphylococcus aureus ATCC 43300 after 24 hrs in Mueller-Hinton broth medium; assay type: functional; settings: ATCC 43300, 24 h
HeLa [1] = assay: Cytotoxicity against human HeLa cells at 100 ug/ml after 24 hrs by MTT assay relative to control; assay type: functional
Brucella abortus [2] = assay: Antibacterial activity against Brucella abortus 9.49 (per-) after 48 hrs in Mueller-Hinton broth medium; assay type: functional
Escherichia coli [3] = assay: Antibacterial activity against Escherichia coli K12 ATCC 23716 after 24 hrs in Mueller-Hinton broth medium; assay type: functional; settings: K12, 24 h
HeLa [4] = assay: Cytotoxicity against human HeLa cells at 100 ug/ml after 24 hrs by neutral red uptake assay relative to control; assay type: functional
Escherichia coli [5] = assay: Antibacterial activity against Escherichia coli ATCC 25922 after 24 hrs in Mueller-Hinton broth medium; assay type: functional; settings: ATCC 25922, 24 h
[6] = tested on: Bordetella bronchiseptica; assay: Antibacterial activity against Bordetella bronchiseptica CUN 11844-99 after 24 hrs in Mueller-Hinton broth medium; assay type: functional
Brucella abortus [7] = assay: Antibacterial activity against Brucella abortus 9.19 (per-) after 24 hrs in Mueller-Hinton broth medium; assay type: functional
Pseudomonas aeruginosa = assay: Antibacterial activity against Pseudomonas aeruginosa CUN 4158-02 after 24 hrs in Mueller-Hinton broth medium; assay type: functional
Escherichia coli [8] = assay: Antibacterial activity against Escherichia coli K12 ATCC 23716 in 10% Luria-Bertani medium/90% Hepes buffer at pH 7.0; assay type: functional
Acinetobacter baumannii = assay: Antibacterial activity against Acinetobacter baumannii ATCC 19606 after 24 hrs in Mueller-Hinton broth medium; assay type: functional; settings: ATCC 19606, 24 h
[9] = Toxicity in human erythrocytes assessed as hemolysis at 100 ug/ml; assay type: cell-based, Erythrocyte; settings: read-out: Activity

Row | Compound | MBC (Staphylococcus aureus) | MIC (Staphylococcus aureus) | Activity (HeLa [1]) | MIC (Brucella abortus [2]) | MBC (Escherichia coli [3]) | MIC (Escherichia coli [3]) | Activity (HeLa [4]) | MBC (Escherichia coli [5]) | MIC (Escherichia coli [5]) | MBC [6] | MIC [6] | MBC (Brucella abortus [7]) | MBC (Pseudomonas aeruginosa) | MIC (Pseudomonas aeruginosa) | MBC (Escherichia coli [8]) | MIC (Escherichia coli [8]) | MBC (Acinetobacter baumannii) | MIC (Acinetobacter baumannii) | hemolysis at 100 ug/ml [9]
1 | CC[C@H](C)[C@H](NC(=O)[C@H](CCCCN)NC(=O)[C@H](CCCCN)NC(=O)[C@H](CO)NC(=O)[C@@H](NC(=O)[C@@H](N)CCCCN)[C@@H](C)CC)C(=O)N[C@@H](CCSC)C(=O)N[C@@H](CCCNC(=N)N)C(=O)N[C@H](C(=O)N[C@@H](Cc1ccccc1)C(=O)N[C@@H](CC(C)C)C(=O)N[C@@H](CCCNC(=N)N)C(=O)N[C@@H](CCCNC(=N)N)C(=O)N[C@H](C(=O)N[C@@H](CC(C)C)C(=O)N[C@H](C(=O)NCC(=O)N[C@@H](CCCCN)C(=O)N[C@@H](CCCCN)C(N)=O)[C@@H](C)O)[C@@H](C)CC)[C@@H](C)O (H-KISKKIMRTFLRRILTGKK-NH2) | 256 µg/mL (≈ 110 µM) | 256 µg/mL (≈ 110 µM) | 21.1% | 2 µg/mL (≈ 0.863 µM) | 8 µg/mL (≈ 3.45 µM) | 8 µg/mL (≈ 3.45 µM) | 56.4% | 16 µg/mL (≈ 6.91 µM) | 16 µg/mL (≈ 6.91 µM) | 128 µg/mL (≈ 55.2 µM) | 128 µg/mL (≈ 55.2 µM) | 32 µg/mL (≈ 13.8 µM) | 8 µg/mL (≈ 3.45 µM) | 8 µg/mL (≈ 3.45 µM) | 50 µg/mL (≈ 21.6 µM) | 25 µg/mL (≈ 10.8 µM) | 4 µg/mL (≈ 1.73 µM) | 4 µg/mL (≈ 1.73 µM) | –
2 | CC[C@H](C)[C@H](NC(=O)[C@H](CCCNC(=N)N)NC(=O)[C@H](CCCNC(=N)N)NC(=O)[C@H](CC(C)C)NC(=O)[C@H](Cc1ccccc1)NC(=O)[C@@H](NC(=O)[C@H](CCCNC(=N)N)NC(=O)[C@H](CCSC)NC(=O)[C@@H](NC(=O)[C@H](CCCCN)NC(=O)[C@H](CCCCN)NC(=O)[C@H](CO)NC(=O)[C@@H](NC(=O)[C@@H](N)CCCCN)[C@@H](C)CC)[C@@H](C)CC)[C@@H](C)O)C(=O)N[C@@H](CO)C(=O)N[C@@H](CCCCN)C(=O)N[C@@H](CC(=O)O)C(=O)N[C@H](C(=O)N[C@@H](CC(C)C)C(=O)N[C@H](C(=O)NCC(=O)N[C@@H](CCCCN)C(=O)N[C@@H](CCCCN)C(N)=O)[C@@H](C)O)[C@@H](C)CC (H-KISKKIMRTFLRRISKDILTGKK-NH2) | > 256 µg/mL | > 256 µg/mL | inactive | 2 µg/mL (≈ 0.725 µM) | 4 µg/mL (≈ 1.45 µM) | 4 µg/mL (≈ 1.45 µM) | – | 4 µg/mL (≈ 1.45 µM) | 4 µg/mL (≈ 1.45 µM) | 1 µg/mL (≈ 0.362 µM) | 1 µg/mL (≈ 0.362 µM) | 64 µg/mL (≈ 23.2 µM) | 4 µg/mL (≈ 1.45 µM) | 4 µg/mL (≈ 1.45 µM) | 12.5 µg/mL (≈ 4.53 µM) | 12.5 µg/mL (≈ 4.53 µM) | 4 µg/mL (≈ 1.45 µM) | 4 µg/mL (≈ 1.45 µM) | < 5%
3 | CC[C@H](C)[C@H](NC(=O)[C@H](CCCNC(=N)N)NC(=O)[C@H](CCCCN)NC(=O)[C@H](CO)NC(=O)[C@@H](NC(=O)[C@@H](N)CCCCN)[C@@H](C)CC)C(=O)N[C@@H](CC(C)C)C(=O)N[C@H](C(=O)NCC(=O)N[C@@H](CCCCN)C(=O)N[C@@H](CCCCN)C(=O)O)[C@@H](C)O (H-KISKRILTGKK-OH) | > 256 µg/mL | > 256 µg/mL | inactive | > 256 µg/mL | > 256 µg/mL | > 256 µg/mL | – | > 256 µg/mL | > 256 µg/mL | > 256 µg/mL | > 256 µg/mL | > 256 µg/mL | > 256 µg/mL | > 256 µg/mL | > 200 µg/mL | 200 µg/mL (≈ 157 µM) | > 256 µg/mL | > 256 µg/mL | < 5%
4 | CC[C@H](C)[C@H](NC(=O)[C@H](CCCCN)NC(=O)[C@@H](N)CCCCN)C(=O)N[C@@H](CCSC)C(=O)N[C@@H](CCCNC(=N)N)C(=O)N[C@H](C(=O)N[C@@H](Cc1ccccc1)C(=O)N[C@@H](CC(C)C)C(=O)N[C@@H](CCCNC(=N)N)C(=O)N[C@@H](CCCNC(=N)N)C(N)=O)[C@@H](C)O (H-KKIMRTFLRR-NH2) | > 256 µg/mL | 256 µg/mL (≈ 190 µM) | inactive | 128 µg/mL (≈ 95 µM) | 256 µg/mL (≈ 190 µM) | 256 µg/mL (≈ 190 µM) | – | > 256 µg/mL | 256 µg/mL (≈ 190 µM) | > 256 µg/mL | > 256 µg/mL | < 256 µg/mL | > 256 µg/mL | > 256 µg/mL | 50 µg/mL (≈ 37.1 µM) | 25 µg/mL (≈ 18.5 µM) | > 128 µg/mL | > 128 µg/mL | < 5%
5 | CC[C@H](C)[C@H](NC(=O)[C@H](CCCNC(=N)N)NC(=O)[C@H](CCCNC(=N)N)NC(=O)[C@H](CC(C)C)NC(=O)[C@H](Cc1ccccc1)NC(=O)[C@@H](NC(=O)[C@H](CCCNC(=N)N)NC(=O)[C@H](CCSC)NC(=O)[C@@H](NC(=O)[C@H](CCCCN)NC(=O)[C@@H](N)CCCCN)[C@@H](C)CC)[C@@H](C)O)C(=O)N[C@@H](CO)C(=O)N[C@@H](CCCCN)C(=O)N[C@@H](CC(=O)O)C(=O)N[C@H](C(=O)N[C@@H](CC(C)C)C(=O)N[C@H](C(=O)NCC(=O)N[C@@H](CCCCN)C(=O)N[C@@H](CCCCN)C(N)=O)[C@@H](C)O)[C@@H](C)CC (H-KKIMRTFLRRISKDILTGKK-NH2) | > 256 µg/mL | > 256 µg/mL | inactive | 16 µg/mL (≈ 6.58 µM) | 32 µg/mL (≈ 13.2 µM) | 32 µg/mL (≈ 13.2 µM) | – | 64 µg/mL (≈ 26.3 µM) | 16 µg/mL (≈ 6.58 µM) | 8 µg/mL (≈ 3.29 µM) | 4 µg/mL (≈ 1.64 µM) | > 256 µg/mL | 128 µg/mL (≈ 52.6 µM) | 128 µg/mL (≈ 52.6 µM) | 32 µg/mL (≈ 13.2 µM) | 32 µg/mL (≈ 13.2 µM) | 64 µg/mL (≈ 26.3 µM) | 8 µg/mL (≈ 3.29 µM) | < 5%
6 | CC[C@H](C)[C@H](NC(=O)[C@H](CCCNC(=N)N)NC(=O)[C@H](CCCNC(=N)N)NC(=O)[C@H](CC(C)C)NC(=O)[C@H](Cc1ccccc1)NC(=O)[C@@H](NC(=O)[C@H](CCCNC(=N)N)NC(=O)[C@H](CCSC)NC(=O)[C@@H](NC(=O)[C@H](CCCCN)NC(=O)[C@@H](N)CCCCN)[C@@H](C)CC)[C@@H](C)O)C(=O)N[C@@H](CO)C(=O)N[C@@H](CCCCN)C(=O)N[C@@H](CCCCN)C(=O)N[C@H](C(=O)N[C@@H](CC(C)C)C(=O)N[C@H](C(=O)NCC(=O)N[C@@H](CCCCN)C(=O)N[C@@H](CCCCN)C(N)=O)[C@@H](C)O)[C@@H](C)CC (H-KKIMRTFLRRISKKILTGKK-NH2) | 256 µg/mL (≈ 105 µM) | 128 µg/mL (≈ 52.3 µM) | inactive | 4 µg/mL (≈ 1.64 µM) | 32 µg/mL (≈ 13.1 µM) | 16 µg/mL (≈ 6.54 µM) | – | 64 µg/mL (≈ 26.2 µM) | 32 µg/mL (≈ 13.1 µM) | 16 µg/mL (≈ 6.54 µM) | 2 µg/mL (≈ 0.818 µM) | 32 µg/mL (≈ 13.1 µM) | 128 µg/mL (≈ 52.3 µM) | 32 µg/mL (≈ 13.1 µM) | 32 µg/mL (≈ 13.1 µM) | 16 µg/mL (≈ 6.54 µM) | 8 µg/mL (≈ 3.27 µM) | 8 µg/mL (≈ 3.27 µM) | < 5%
7 | CC[C@H](C)[C@H](NC(=O)CN)C(=O)NCC(=O)N[C@@H](C)C(=O)N[C@H](C(=O)N[C@@H](CC(C)C)C(=O)N[C@@H](CCCCN)C(=O)N[C@H](C(=O)N[C@@H](CC(C)C)C(=O)N[C@H](C(=O)N[C@H](C(=O)NCC(=O)N[C@@H](CC(C)C)C(=O)N1CCC[C@H]1C(=O)N[C@@H](C)C(=O)N[C@@H](CC(C)C)C(=O)N[C@H](C(=O)N[C@@H](CO)C(=O)N[C@@H](Cc1c[nH]c2ccccc12)C(=O)N[C@H](C(=O)N[C@@H](CCCCN)C(=O)N[C@@H](CCCNC(=N)N)C(=O)N[C@@H](CCCCN)C(=O)N[C@@H](CCCNC(=N)N)C(=O)N[C@@H](CCC(N)=O)C(=O)N[C@@H](CCC(N)=O)C(N)=O)[C@@H](C)CC)[C@@H](C)CC)[C@@H](C)O)[C@@H](C)O)C(C)C)C(C)C [MELITTIN] | 2 µg/mL (≈ 0.703 µM) | – | 90.1% | 4 µg/mL (≈ 1.41 µM) | 4 µg/mL (≈ 1.41 µM) | – | 86% | 4 µg/mL (≈ 1.41 µM) | – | 4 µg/mL (≈ 1.41 µM) | 4 µg/mL (≈ 1.41 µM) | 4 µg/mL (≈ 1.41 µM) | 16 µg/mL (≈ 5.62 µM) | – | 12.5 µg/mL (≈ 4.39 µM) | – | 2 µg/mL (≈ 0.703 µM) | 2 µg/mL (≈ 0.703 µM) | –
